Where a name gives a salt, the structure may show the parent alone.
Columns and labels:
MV-4-11 cells = test: Antiproliferation activity on MV-4-11 cells (CellTiter-Glo, 6 days); format: cell-based; conditions: incubated for 6 days
Text: Experimental purpose: to detect the antiproliferation activity of the compound to be tested on MV-4-11 cells.
Experimental materials: IMDM culture medium, fetal bovine serum, penicillin/streptomycin antibiotics purchased from Wisent. CellTiter-Glo (chemiluminescent cell viability assay reagent) reagents purchased from Promega. MV-4-11 cell line was purchased from Nanjing Cobioer Co., Ltd. Nivo Multi-Marker Analyzer (PerkinElmer).
Experimental method: MV-4-11 cells were planted in a white 96-well plate, 80 μL of cell suspension per well, which contained 6000 MV-4-11 cells. The cell plate was placed in a carbon dioxide incubator for overnight culture.
The compounds to be tested were diluted 5-fold with a pipet until the 8th concentration, i.e., diluted from 2 mM to 25.6 nM, double duplicate well experiment was set. 78 μL of the culture medium was added to an intermediate plate, and then 2 μL per well of the serially diluted compounds were transferred to the corresponding positions on the intermediate plate, after mixing, 20 μL per well was transferred to the cell plate. The cell plate was incubated in a carbon dioxide incubator for 6 days. Another cell plate was prepared and the signal value on the day of dosing was read as the maximum value (Max value in the equation below) to participate in the data analysis. 25 μL of the chemiluminescent cell viability assay reagent was added to each well of this cell plate, which was incubated at room temperature for 10 minutes to stabilize the luminescence signal. The multi-label analyzer was used for reading.
Data analysis: the equation (Sample-Min)/(Max-Min)*100% was used to convert the original data into the inhibition rate, the IC50 value can be obtained by curve fitting of four-parameters (“log(inhibitor) vs. response—Variable slope” mode in GraphPad Prism)).

[1] = In vivo pharmacokinetics in CD-1 mice; conditions: male CD-1 mice
Method: CD-1 mice (male, 7-9 weeks old, Shanghai Slac)
The rodent pharmacokinetic characteristics after intravenous injection and oral administration of the compounds were tested by standard protocols, in the experiment, the candidate compounds were formulated into clear solutions and administrated to mice via a single intravenous injection and oral administration. The vehicle for intravenous injection and oral administration was a mixed solution of 10% of dimethyl sulfoxide and 90% of 10% hydroxypropyl β cyclodextrin. This project used four male CD-1 mice, two mice were administered intravenously, with a dose of 1 mg/kg, and plasma samples were collected at 0 hour (before administration) and 0.0833, 0.25, 0.5, 1, 2, 4, 8, 24 hours after administration. The other two mice were orally administered by gavage, with a dose of 2 mg/kg, plasma samples were collected at 0 hour (before administration) and 0.25, 0.5, 1, 2, 4, 8, 24 hours after administration, whole blood samples were collected within 24 hours, which were centrifuged at 3000 g for 15 minutes, and the supernatants were separated to obtain plasma samples, 4 times volume of acetonitrile solutions containing internal standard were added to precipitate the protein, the mixtures were centrifuged to obtain the supernatants, the supernatants were added with water of equal volume and centrifuged again to take the supernatant for injection, and the blood drug concentration was quantitatively analyzed by the LC-MS/MS analysis method, and pharmacokinetic parameters were calculated, such as max concentration (Cmax), clearance (CL), half-life (T1/2), volumes of distribution (Vdss), the area under the plasma concentration-time curve (AUC0-last), bioavailability (F) etc.

[2] = system: human small cell lung cancer NCI-H1417 xenograft tumor model; test: In vivo pharmacodynamic study on NCI-H1417 subcutaneous xenograft tumor in CB-17 SCID mice; conditions: compound 6 hydrochloride 1.5 mg/kg oral once a day, cisplatin 1 mg/kg i.p. twice a week
Method: The purpose of the experiment was to evaluate the in vivo efficacy of the compounds of the present disclosure on subcutaneous xenograft tumor of human small cell lung cancer NCI-H1417 cells in a CB-17 SCID mouse model.
Human small cell lung cancer NCI-H1417 cells (ATCC) were cultured in vitro in a single layer, the culture conditions were RPMI-1640 culture medium supplemented with 10% fetal bovine serum, 37° C. 5% CO2. When the cell saturation reached 80%-90%, the cells were collected, counted, and inoculated.
0.2 mL of 10×10^6 NCI-H1417 cells were subcutaneously inoculated into the right back of each mouse (PBS: Matrigel=1:1). Group administration was started when the average volume reached 100-150 mm^3.
The vehicle used in the experiment was 0.5% methylcellulose solution, the preparation method was: 5 g of methylcellulose was weighed and dissolved in 800 mL ultrapure water, stirred evenly and made up to 1000 mL with ultrapure water. The test substance was dissolved in a solvent and prepared into a uniform solution of a certain concentration, and stored at 4° C.
Cisplatin (Cisplatin, manufacturer Qilu Pharmaceutical Co., Ltd., 10 mg/bottle freeze-dried powder for injection, lot number 7D011A8) was added to 10 mL 0.9% NaCl to make a 1 mg/mL mother liquor, and stored at room temperature and protected from light. The mother liquor was aliquoted into 0.63 mL and stored at room temperature. 5.67 mL 0.9% NaCl was added to one of the 0.63 mL mother liquor to make a 0.1 mg/mL solution.
The experimental indicator is to investigate whether tumor growth was inhibited, delayed, or cured. Tumor diameters were measured with a vernier caliper twice a week. The tumor volume was calculated by the calculation formula: V=0.5a×b^2, a and b respectively represent the long and short diameters of the tumor.
The anti-tumor effect of the compounds was evaluated by TGI (%). TGI (%) can reflect the tumor growth inhibition rate. TGI (%) calculation: TGI (%)=[1-(the average tumor volume at the end of the administration in a treatment group—the average tumor volume at the beginning of the administration in the treatment group)/(the average tumor volume at the end of the treatment of the solvent control group—the average tumor volume at the beginning of the treatment of the solvent control group)]×100%.

IC50 (MV-4-11 cells): 3.21 nM | Half-life T1/2 (IV) ([1]; IV 1 mg/kg, 1 mg/kg): 1.54 h | clearance ([1]; male, CD-1, mouse, plasma, iv, 1 mg/kg, study doses 1 mg/kg intravenous, 2 mg/kg oral, read-out: Clearance CL): 40.2 mL/min/kg | Vd ([1]; male, CD-1, mouse, plasma, iv, 1 mg/kg, study doses 1 mg/kg intravenous, 2 mg/kg oral, read-out: Volumes of distribution Vdss): 1.19 L/kg | Cmax ([1]; male, CD-1, mouse, plasma, study doses 1 mg/kg intravenous, 2 mg/kg oral, route not given, read-out: Max concentration Cmax): 718 nM | AUC(0-t) ([1]; male, CD-1, mouse, plasma, po, 2 mg/kg, PO 2 mg/kg, read-out: The area under the plasma concentration-time curve AUC0-last PO): 0.691 µM·h | bioavailability ([1]; male, CD-1, mouse, plasma, po, 2 mg/kg, oral 2 mg/kg vs intravenous 1 mg/kg, read-out: Bioavailability F): 33.2%
Structure (SMILES): O=C(O)c1ccc(CN2CCC3(CC2)CC(N[C@@H]2C[C@H]2c2ccccc2)CO3)cc1 (stereo partly drawn) [Hydrochloride of the compound 6]
Tumor volume mean ± SEM (28th day) ([2]; CB-17 SCID mice): 187 ± 14 mm^3 | TGI ([2]; tumor growth inhibition rate, 28th day): 79.2%

Source: patent US11649245B2, “Cyclopropylamine compound as LSD1 inhibitor and use thereof” (HELIOEAST PHARMACEUTICAL CO., LTD., priority 2018, dated 2023)
